Reference: patent US9169247B2, “Tetrahydro-beta-carboline derivatives, synthesis and use thereof” (Southern Research Institute, priority 2009, dated 2015)
pIC50: −log10 of the molar value. Where two headings read alike, the source gives them in different places.

Key:
Assay in all cases: Growth assay (Cell Titer Glo)
Format in all cases: cell-based
786-0 = settings: Homo sapiens; 786-0, renal
Method: (§1) All human tumor cell lines were obtained from ATCC and grown under standard cell culture conditions at 37° C. in a humidified atmosphere with 5% CO2. Cells were grown in RPMI 1640 supplemented with 5% fetal bovine serum 2 mM glutamine, 100 units/ml penicillin, 100 units/ml streptomycin, and 0.25 μg/ml amphotericin. Cells were harvested at 70 to 90% confluence with trypsin/EDTA and used immediately Cell count and viability was determined by Trypan blue staining followed by hemocytometry. Only cultures displaying >95% cell viability were used for experiments. HMEC were grown according to the specifications from the supplier (Lonzo).
(§2) Tissue culture microtiter 96-well plates were seeded with cells at a density of 5,000 cells/well. The plates were incubated for 18-24 hours prior to any treatment. All test compounds were solubilized in 100% DMSO and diluted with media to obtain a final DMSO concentration of 0.1%. Cell viability was measured 72 hours after treatment by the Cell Titer Glo Assay (Promega), which is a luminescent assay that is an indicator of live cells as a function of metabolic activity and ATP content. The assay was performed according to manufacturer's specifications. Luminescence was measured by a Perkin Elmer Victor® multi-label plate reader.^6
(§3) Dose response curves were analyzed using Prism™ 4 software (GraphPad) to calculate IC50 values using a four parameter logistic equation.

ACHN = settings: Homo sapiens, renal
Method: as §1, §2, §3

CCFR-CEM = settings: Homo sapiens, hematopoietic
Method: as §1, §2, §3

DU-145 = settings: Homo sapiens; DU-145, prostate
Method: as §1, §2, §3

EKVX = settings: Homo sapiens, lung
Method: as §1, §2, §3

HCT-15 = settings: Homo sapiens; HCT-15, colon
Method: as §1, §2, §3

HL-60(TB) = settings: Homo sapiens, hematopoietic
Method: as §1, §2, §3

HOP-62 = settings: Homo sapiens; HOP-62, lung
Method: as §1, §2, §3

IGROVI = settings: Homo sapiens; IGROVI / IGROV-1, ovarian
Method: as §1, §2, §3

KM12 = settings: Homo sapiens; KM12, colon
Method: as §1, §2, §3

LOX IMVI = settings: Homo sapiens; LOX IMVI / LOX IMV1, melanoma
Method: as §1, §2, §3

M14 = settings: Homo sapiens; M14, melanoma
Method: as §1, §2, §3

MALME-3M = settings: Homo sapiens, melanoma
Method: as §1, §2, §3

MCF-7 = settings: Homo sapiens, MCF7; MCF-7, breast
Method: as §1, §2, §3

MOLT-4 = settings: Homo sapiens; MOLT-4, hematopoietic
Method: as §1, §2, §3

NCI-ADR-RES = settings: Homo sapiens, multi-drug resistant
Method: as §1, §2, §3

NCI-H23 = settings: Homo sapiens; NCI-H23, lung
Method: as §1, §2, §3

NCI-H322M = settings: Homo sapiens, lung
Method: as §1, §2, §3

NCI-H460 = settings: Homo sapiens; NCI-H460, lung
Method: as §1, §2, §3

OVCAR-4 = settings: Homo sapiens; OVCAR-4, ovarian
Method: as §1, §2, §3

OVCAR-5 = settings: Homo sapiens; OVCAR-5, ovarian
Method: as §1, §2, §3

OVCAR-8 = settings: Homo sapiens; OVCAR-8, ovarian
Method: as §1, §2, §3

PC-3 = settings: Homo sapiens; PC-3, prostate
Method: as §1, §2, §3

RPMI-8226 = settings: Homo sapiens; RPMI-8226, hematopoietic
Method: as §1, §2, §3

RXF-393 = settings: Homo sapiens; RXF-393, renal
Method: as §1, §2, §3

SF-539 = settings: Homo sapiens; SF-539, CNS
Method: as §1, §2, §3

SK-MEL-28 = settings: Homo sapiens
Method: as §1, §2, §3

SKOV-3 = settings: Homo sapiens; SKOV-3 / SK-OV-3, ovarian
Method: as §1, §2, §3

SN12C = settings: Homo sapiens, renal
Method: as §1, §2, §3

SNB-19 = settings: Homo sapiens; SNB-19, CNS
Method: as §1, §2, §3

SNB-75 = settings: Homo sapiens; SNB-75, CNS
Method: as §1, §2, §3

SR = settings: Homo sapiens, hematopoietic
Method: as §1, §2, §3

T-47D = settings: Homo sapiens, T47D, breast
Method: as §1, §2, §3

U251 = settings: Homo sapiens, U-251; U251, CNS
Method: as §1, §2, §3

UACC-257 = settings: Homo sapiens; UACC-257, melanoma
Method: as §1, §2, §3

UACC-62 = settings: Homo sapiens; UACC-62, melanoma
Method: as §1, §2, §3

UO-31 = settings: Homo sapiens; UO-31, renal
Method: as §1, §2, §3

[1] = tested on: human MDA-MB-231 breast tumor cells; settings: Homo sapiens
Method: as §1, §2, §3

| Compound | pIC50 (786-0) | pIC50 (ACHN) | pIC50 (CCFR-CEM) | pIC50 (DU-145) | pIC50 (EKVX) | pIC50 (HCT-15) | pIC50 (HL-60(TB)) | pIC50 (HOP-62) | pIC50 (IGROVI) | pIC50 (KM12) | pIC50 (LOX IMVI) | pIC50 (M14) | pIC50 (MALME-3M) | pIC50 (MCF-7) | pIC50 (MOLT-4) | pIC50 (NCI-ADR-RES) | pIC50 (NCI-H23) | pIC50 (NCI-H322M) | pIC50 (NCI-H460) | pIC50 (OVCAR-4) | also measured |
| --- | --- | --- | --- | --- | --- | --- | --- | --- | --- | --- | --- | --- | --- | --- | --- | --- | --- | --- | --- | --- | --- |
| COC(=O)[C@H]1Cc2c([nH]c3ccccc23)[C@H](c2cc(OC)ccc2OC)N1C(=O)CCl [Compound 2f, Methyl (1S,3R)-1-(2,5-dimethoxyphenyl)-2-(2-chloroacetyl)-2,3,4,9-tetrahydro-1H-β-carboline-3-carboxylate] | 7.49 | 8.89 | > 8.22 | 6.63 | 7.85 | < 5.00 | 7.77 | 7.70 | 8.00 | 5.86 | 8.40 | 6.31 | 6.88 | 5.43 | 6.79 | 7.64 | 7.89 | 5.61 | < 5.00 | 7.82 | pIC50 (OVCAR-5): 6.00; pIC50 (OVCAR-8): 7.17; pIC50 (PC-3): 6.72; pIC50 (RPMI-8226): 7.77; pIC50 (RXF-393): 8.52; pIC50 (SF-539): 7.47; pIC50 (SK-MEL-28): 6.31; pIC50 (SKOV-3): 7.22; pIC50 (SN12C): 6.43; pIC50 (SNB-19): 6.88; pIC50 (SNB-75): 7.20; pIC50 (SR): > 8.15; pIC50 (T-47D): 6.01; pIC50 (U251): 6.59; pIC50 (UACC-257): 5.27; pIC50 (UACC-62): 6.92; pIC50 (UO-31): > 8.05; IC50 ([1]; MDA-MB-231, 72 h, MDA-MB-231 breast, 72 h, Tables 3-5, read-out: IC50 value, μM, growth): 0.006 µM |
| COC(=O)[C@H]1Cc2c([nH]c3ccccc23)[C@H](c2ccc(Cl)cc2Cl)N1C(=O)CCl [Compound 2j, (1S,3R) Methyl 1-(2,4-dichlorophenyl)-2-(2-chloroacetyl)-2,3,4,9-tetrahydro-1H-β-carboline-3-carboxylate] | 7.70 | 8.00 | 8.00 | < 5.52 | 7.70 | < 5.52 | 7.40 | 6.70 | 7.70 | 6.20 | > 9.00 | 5.65 | < 5.52 | < 5.52 | 6.89 | 7.70 | < 5.52 | < 5.52 | > 9.00 | 7.30 | pIC50 (OVCAR-5): 6.31; pIC50 (OVCAR-8): 7.30; pIC50 (PC-3): 6.47; pIC50 (RPMI-8226): 7.10; pIC50 (RXF-393): 7.82; pIC50 (SF-539): 6.80; pIC50 (SK-MEL-28): 5.98; pIC50 (SKOV-3): 6.49; pIC50 (SN12C): < 5.52; pIC50 (SNB-19): 5.98; pIC50 (SNB-75): 7.00; pIC50 (SR): 8.10; pIC50 (T-47D): 6.92; pIC50 (U251): 5.73; pIC50 (UACC-257): < 5.52; pIC50 (UACC-62): 6.54; pIC50 (UO-31): 8.30; inhibition at 10 µM ([1]; MDA-MB-231, MDA-MB-231, 10 μM, mean +/− spread): 98%; IC50 ([1]; MDA-MB-231, MDA-MB-231, Tables 1 and 2, read-out: Growth Inhibition IC50, μM (95% CI)): 0.07 µM |
